Patent publication US7029879B1, “Iodine uptake restoration in thyroid cancer” (University of Kentucky Research Foundation, priority 1999, dated 2006)

How the values were obtained:
[1] = test system: hNIS gene regions P (promoter), L (leader), C (coding); assay: Methylation-specific PCR of hNIS gene regions in treated cell lines; format: cell-based, human; for Methylation Status by Region P: key: mRNA expression (hNIS, TTF-1, Pax-8): +, positive; −, negative
Method: (§1) Cell lines, for evaluation of iodide-uptake and hNIS expression, were grown in phenol-red-free RPMI 1640 with 5% fetal bovine serum (FBS), 100 nM sodium selenite and 0.1 nM bovine TSH (basal medium) (20). They were plated at a density of 3–5×10^4 cells/9.4 cm^2, in triplicate in basal medium, and grown for 2–3 days at 37° C. in 5% CO2. They were treated with dimethylsulfoxide (DMSO, 25 μM daily for 3 days), sodium butyrate (0.5 or 1.0 mM), phenylacetate (pH 7.0, 5 or 10 mM) or 5-azacytidine (0.5 or 1.0 μM, in 25 μM DMSO, daily for 3 days) until control cells were 80% confluent (3–4 days), then changed to fresh basal medium and grown for an additional 24 hrs.
This method utilizes PCR primer pairs to distinguish methylated from unmethylated DNA in bisulfite-modified target DNA, in which bisulfite converts unmethylated cytosines to uracil (23,24). Genomic DNAs, from normal and tumoral human thyroid tissues and cell lines, were isolated by standard techniques (21) and 1.0 μg aliquots were denatured by NaOH (10 min at 37° C.), then treated with 10 mM hydroquinone and 3.0 M sodium bisulfite (pH 5.0 under mineral oil for 16 hrs at 50° C.). Modified DNA was purified on a resin column (Qiagen) and further treated with 0.3 N NaOH for 5 min prior to ethanol precipitation. The PCR mixture contained 16.6 mM ammonium sulfate, 67 mM Tris-HCl (pH 8.8), 6.7 mM MgCl2, 10 mM β-mercaptoethanol, 1.25 mM dNTPs, 0.2 μL TaqStart antibody, 1 U AmpliTaq DNA polymerase, 10 pmoles each of sense and antisense methylation-specific primers, and […] of bisulphite-modified DNA target. Primers used for analysis of the hNIS promoter CpG island methylation were selected for cytosine-rich regions, containing CpG dinucleotides near the 3′ end of the primers, hNIS-MET-P (sense, 5′ to 3′, TTAGGTTTGGAGGCGGA GTCGC (SEQ ID NO. 7) and antisense, 5′ to 3′, ACCGACTATCTATCCCT CTCCCTAAACG) (SEQ ID NO. 8) for a 143 bp product from methylated DNA and hNIS-UNMET-P (sense, 5′ to 3′, […] GAGTTGT (SEQ ID NO. 9) and antisense, 5′ to 3′, […] CCTAAACA) (SEQ ID NO. 10) for a 151 bp product from unmethylated genomic DNA. Additional sets of primers were similarly designed to analyze further downstream elements. They were: hNIS-MET-L (sense, […] (SEQ ID NO. 11) and antisense, GACCT CCATAAAAACGAATACG) (SEQ ID NO. 12) for a 265 bp product, with hNIS-UNMET-L (sense, […] (SEQ ID NO. 13), and antisense, […]) (SEQ ID NO. 14), for a 275 bp product, hNIS-MET-C (sense, […] (SEQ ID NO. 15) and antisense, […]) (SEQ ID NO. 16) for a 242 bp product, and hNIS-UNMET-C (sense, […] (SEQ ID NO. 17), and antisense, […]) (SEQ ID NO. 18), for a 252 bp product. The amplification conditions were: Taq polymerase activation at 95° C. for 5 min, 40 cycles of: denaturation at 94° C. for 20 s, annealing at 60° C. for 30 s and polymerization at 72° C. for 30 s. MS-PCR products were resolved by agarose gel electrophoresis and visualized by ethidium bromide staining and UV transillumination.

KAT-10 cells = assay: Lethality of culture additive in cell culture; format: cell-based, human; conditions: AzaC high, 1.0 μM
Method: as §1

[2] = test system: TTF-1 expression and thyroglobulin promoter activity; conditions: transformed rat thyroid cell line (activated RAS oncogene); cited from earlier work
[3] = KAT-5, high: AzaC 1.0 μM, PhAc 10 mM
[4] = NPA'87, high: AzaC 1.0 μM, NaB 1.0 mM

Structure (SMILES): Nc1ncn([C@@H]2O[C@H](CO)[C@@H](O)[C@H]2O)c(=O)n1 [AzaC, 5-azacytidine]
- methylation at the L and C regions after treatment ([1]; KAK-1, KAT-5, KAT-10 and NPA'87 (all four cell lines)): decreased methylation
- Methylation Status by Region C ([1]; KAK-1, high: AzaC 1.0 μM): −
- Methylation Status by Region L ([1]; KAK-1, high: AzaC 1.0 μM): −
- Methylation Status by Region P ([1]; KAK-1, high: AzaC 1.0 μM): −
- Methylation Status by Region C ([1]; KAK-1, low: AzaC 0.5 μM): −
- Methylation Status by Region L ([1]; KAK-1, low: AzaC 0.5 μM): −
- Methylation Status by Region P ([1]; KAK-1, low: AzaC 0.5 μM): −
- Methylation Status by Region C [1, 3]: −
- Methylation Status by Region L [1, 3]: −
- Methylation Status by Region P [1, 3]: −
- susceptibility to demethylation effects in the C region ([1]; KAT-5 and KAT-10 cells, C region compared with L region): less than that of the L region
- Methylation Status by Region C ([1]; KAT-10, low: AzaC 0.5 μM): −
- Methylation Status by Region L ([1]; KAT-10, low: AzaC 0.5 μM): −
- Methylation Status by Region P ([1]; KAT-10, low: AzaC 0.5 μM): −
- effect on methylation status of the P region ([1]; MRO87, WRO82 and KAT-7): did not affect the baseline demethylated status
- demethylation of region C in response to treatment ([1]; MRO87, WRO82 and KAT-7, except minimal unmethylated product for WRO82): did not become demethylated
- Methylation Status by Region C [1, 4]: −
- Methylation Status by Region L [1, 4]: −
- Methylation Status by Region P [1, 4]: −
- Lethality of additive concentration for the cell line (KAT-10 cells): Lethal additive concentration for this cell line
- TTF-1 expression [2]: restored
- thyroglobulin promoter activity [2]: restored

Structure (SMILES): CCCC(=O)[O-].[Na+] [NaB, sodium butyrate]
- Methylation Status by Region C ([1]; KAT-10, high: NaB 1.0 mM): +
- Methylation Status by Region L ([1]; KAT-10, high: NaB 1.0 mM): +
- Methylation Status by Region P ([1]; KAT-10, high: NaB 1.0 mM): −
- Methylation Status by Region C [1, 4]: +
- Methylation Status by Region L [1, 4]: +
- Methylation Status by Region P [1, 4]: −
- effect on baseline methylation patterns in all three regions ([1]; NPA'87 and KAT-10): failed to demonstrate effects on altering baseline methylation patterns
